Results as given in PubChem BioAssay (NCI).
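Values below derive from 48-hour exposures of cells grown in 96-well plates, with endpoints linearly interpolated between the two concentrations bracketing the appropriate inhibition level. Abbreviation: GI50, concentration required for 50% inhibition of growth. At the TGI there is no net growth.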

Experiments:
Assay in all cases: NCI tumour cell line growth inhibition, 48 h
786-0 renal = system: 786-0 renal
HOP-18 NSCLC = system: HOP-18 NSCLC
LXFL 529 NSCLC = system: LXFL 529 NSCLC
RXF-631 renal = system: RXF-631 renal
DU-145 prostate = system: DU-145 prostate
MDA-N = system: MDA-N
P388 leukemia = system: P388 leukemia
P388/ADR leukemia = system: P388/ADR leukemia
SN12K1 renal = system: SN12K1 renal

SMILES: CC(C)CCC[C@@H](C)C1CCC2[C@@H]3CC=C4C[C@@H](C(=O)NCC[N+](C)(C)CCCS(=O)(=O)[O-])CC[C@]4(C)C3CC[C@@]21C (stereo partly drawn)
- TGI (786-0 renal): 31.1 µM
- TGI (HOP-18 NSCLC): 35.8 µM
- TGI (LXFL 529 NSCLC): 33.3 µM
- TGI (RXF-631 renal): 34.6 µM

SMILES: O=C(O)CNc1ccc(C(=O)O)cc1
- TGI (786-0 renal): > 100 µM
- TGI (DU-145 prostate): > 100 µM
- TGI (MDA-N): > 100 µM

SMILES: S=P1(N2CCCCC2)Oc2ccc3ccccc3c2-c2c(ccc3ccccc23)O1
- TGI (HOP-18 NSCLC): > 100 µM
- TGI (P388 leukemia): > 100 µM
- TGI (P388/ADR leukemia): > 100 µM
- TGI (SN12K1 renal): > 100 µM

SMILES: O=[N+]([O-])c1ccccc1NC1c2ccccc2Oc2ccccc21
- GI50 (DU-145 prostate): 43 µM
- TGI (DU-145 prostate): > 100 µM

SMILES: Cc1ccc([N+](=O)[O-])cc1S(=O)(=O)Nc1ccc(C2=NNC(c3ccccc3O)C2)cc1 (stereo not drawn)
- TGI (DU-145 prostate): > 100 µM
- TGI (MDA-N): 93.5 µM

SMILES: CN1CCCCC(C#N)(c2ccccc2)CC1 (stereo not drawn)
- TGI (786-0 renal): > 100 µM
- TGI (DU-145 prostate): > 100 µM
- TGI (MDA-N): > 100 µM

SMILES: N=C(N)c1ccc(-c2ccc(-c3ccccc3)s2)cc1
- GI50 (DU-145 prostate): 1.75 µM
- TGI (DU-145 prostate): 3.17 µM

SMILES: CC(=O)Oc1ccc2c(c1)oc1c3ccc(OC(C)=O)cc3n(C)c(=O)c21
- TGI (DU-145 prostate): > 100 µM
- TGI (MDA-N): > 100 µM

SMILES: C=C1C(=O)C[C@@]23CCC[C@@]12CC(OCOC)C3 (stereo partly drawn)
- TGI (HOP-18 NSCLC): 11.5 µM
- TGI (P388 leukemia): 1.92 µM
- TGI (P388/ADR leukemia): 2.09 µM
- TGI (SN12K1 renal): 4.13 µM

SMILES: N=c1c2c(=S)n(-c3ccccc3)c(=S)n(-c3ccccc3)c2nc(SCCCN2CCN(c3cccc(Cl)c3)CC2)n1-c1ccccc1
- TGI (DU-145 prostate): > 100 µM

SMILES: Cc1cc(C)c2c(c1)CC1(Cc3c(C)ccc(C)c3C1=O)C2=O (stereo not drawn)
- TGI (DU-145 prostate): > 100 µM
- TGI (MDA-N): > 100 µM

SMILES: CCCCCCCC/C=C\CCCCCCCC(=O)O
- TGI (P388 leukemia): 274 µM
- TGI (P388/ADR leukemia): 200 µM
- TGI (SN12K1 renal): 175 µM

SMILES: COC(=O)c1cccc(N[C@@H]2c3cc4c(cc3C(c3cc(OC)c(O)c(OC)c3)[C@H]3C(=O)OCC32)OCO4)c1 (stereo partly drawn)
- TGI (HOP-18 NSCLC): 21.6 µM
- TGI (P388 leukemia): 0.826 µM
- TGI (P388/ADR leukemia): 1.58 µM
- TGI (SN12K1 renal): 9.75 µM

SMILES: CCN(CC)CCCNc1ncc(C)c2[nH]c3ccncc3c12
- TGI (P388 leukemia): 15.3 µM
- TGI (P388/ADR leukemia): > 100 µM
- TGI (SN12K1 renal): 19.9 µM

SMILES: COc1cc(/C=C/c2cc(/C=C/c3ccc(O)c(OC)c3)nc(N)n2)ccc1O
- GI50 (DU-145 prostate): 2.4 µM
- TGI (DU-145 prostate): 6.31 µM

SMILES: O=C(O)CS
- TGI (786-0 renal): > 100 µM
- TGI (LXFL 529 NSCLC): > 100 µM
